Assay [1] deals with calvaria (PTH enhanced bone). Briefly: Inhibitory effect on bone absorption (calcium liberation from PTH enhanced cultured calvaria). Type of assay: cell-based, newborn dd mouse. Particulars: mouse calvaria culture, PTH 1 x 10^-8M, 96 hours, calcium in the culture; test compound 3 x 10^-6M, 1 x 10^-5M, 3 x 10^-5M. The procedure: Test Example 1: Inhibitory effect on bone absorption
The calvaria was excised from a newborn dd mouse (5 to 6 days old) under sterile conditions. The calvaria was washed with a modified Dulbecco phosphate buffer physiological saline solution containing neither calcium nor magnesium (a product of Gibco Oriental), and divided into two parts along the center suture. A half of the calvaria was cultivated in a modified Dulbecco Eagle medium (1.5 ml) (a product of Gibco Oriental) containing 2.5% fetal calf serum and 15% equine serum which had been inactivated by heating at 56°C for 20 minutes. The test compound was dissolved in dimethyl sulfoxide and 10 µl of the resulting solution was added to the culture medium to give the final concentrations of 3 x 10^-6M, 1 x 10^-5M, and 3 x 10^-5M. PTH (parathyroid hormone) was dissolved in a 0.15 M saline solution (pH 3) and 3 µl of the resulting solution was added to the culture medium to give the final concentration of 1 x 10^-8M. The culturing was carried out under the condition of 95% air and 5% carbon dioxide and at a temperature of 37°C for 96 hours. At 48 hours after the start of the culturing, the culture medium was renewed and the test compound and PTH treated as defined above were added thereto. For examining the effect of the test compound on calcium liberation (bone absorption) from the PTH enhanced bone, a control group, a group using PTH (1 x 10^-8M), and a group using both the test compound (3 x 10^-6M, 1 x 10^-5M, 3 x 10^-5M) and PTH were prepared. The amount of the bone absorption was determined by measuring the amount of calcium accumulated in the culture as collected after 96 hours of culturing. The total calcium concentration in the culture was measured with Calcium C Test Wako. The inhibition rate was calculated using the following equation and the result was shown in terms of 50% inhibitory concentration (IC50). Inhibition of bone absorption from PTH enhanced bone Inhibition rate (%) = [(CP - CD )/(CP - C0 )] x 100 [formula] • C0 : The total calcium concentration in the culture containing neither the test compound nor PTH. • CP : The total calcium concentration in the culture treated with only PTH. • CD : The total calcium concentration in the culture treated with both the test compound and PTH.

The subject of the next assay is ovariectomized rats. Kind of assay: Inhibitory effect on the increase of urinary hydroxyproline excretion by ovariectomy. Type of assay: in vivo, female SD strain rats. As to conditions: 10 mg/kg orally once a day for two weeks, hydroxyproline/creatinine molar ratio in 24 hour urine. The procedure: The inhibitory effect of the compounds of the present application on bone resorption was also determined by their inhibitory effect on the excretion of urinary hydroxyproline which is elevated by ovariectomy of the animals tested, according to the report of Kalu et al. [Bone and Mineral., 14, 175 (1991)].
Test Example 2: Inhibitory effect on the increase of urinary hydroxyproline excretion by ovariectomy
12-weeks-old female SD strain rats (Japan Clea Co., Ltd.) were acclimated for 1 week during which they were given tap water and a standard diet (F2; Funabashi Farmas) ad libitum. The experiment was carried out using the rats weighing 270-310 g. After the animals were subjected to sham operation or bilateral ovariectomy, they were allowed free access to water passed through ion exchange resin instead of tap water, and were housed in individual cages. The test compound (10 mg/kg) was suspended in 0.3% Tween, and the obtained suspension was orally administered to the ovariectomized rats once a day for two weeks starting from the day following ovariectomy (0.5 ml/100 g body weight). 0.3% Tween was similarly administered to sham-operated rats and ovariectomized control rats. After the final administration, the rats were placed in individual metabolic cages and fasted during 24 hours, and urine was collected. The volume of the collected urine was measured and the urine was centrifuged at 3,000 rpm for 15 min at 4°C. The concentration of hydroxyproline in the supernatant was measured by the method of Ikeda et al. [Ann. Rep. Tokyo Metr. Res. Lab. P. H., 36, 277-282 (1985)] and the concentration of creatinine in the supernatant was measured with creatinine test WAKO (Wako Pure Chem.) The amount of urinary hydroxyproline excretion was expressed by the molar ratio of the amount of hydroxyproline to the amount of creatinine. The rate of inhibition on increase of the amount of urinary hydroxyproline excretion in ovariectomized rats treated with the test compound compared to that of the control group was calculated using the following equation. […]

For orientation: IC50 means the concentration at which inhibition is half-maximal. As to `O=S(=O)(c1[nH]c2ccccc2c1C(c1ccc(O)cc1)c1ccc(O)cc1)N1CCN(c2ccccc2Cl)CC1` [Compound 14, 3-[Bis(4-hydroxyphenyl)methyl]-2-[4-(2-chlorophenyl)piperazinylsulfonyl]indole], in assay [1], the IC50 is 14.1 µM.

For the compound `O=S(=O)(c1c(C(c2ccc(O)cc2)c2ccc(O)cc2)c2ccccc2n1CCN1CCOCC1)N1CCN(c2ccccc2Cl)CC1` [Compound 16, 3-[Bis(4-hydroxyphenyl)methyl]-2-[4-(2-chlorophenyl)piperazinylsulfonyl]-1-(2-morpholinoethyl)indole], the “Inhibition rate of increase of the amount of urinary hydroxyproline excretion” value in the assay on ovariectomized rats stood at 32%.

Regarding `CN(C)CCn1c(S(=O)(=O)N2CCCCC2)c(C(c2ccc(O)cc2)c2ccc(O)cc2)c2ccccc21` [Compound 17, 3-[Bis(4-hydroxyphenyl)methyl]-1-(2-dimethylaminoethyl)-2-(piperidinosulfonyl)indole], the half-inhibitory concentration (IC50) in assay [1] is 13.7 µM.

In the case of `CCN(CC)S(=O)(=O)c1c(C(c2ccc(O)cc2)c2ccc(O)cc2)c2ccccc2n1CCN(C)C` [Compound 18, N,N-Diethyl-3-[bis(4-hydroxyphenyl)methyl]-1-(2-dimethylaminoethyl)indole-2-sulfonamide], the “Inhibition rate of increase of the amount of urinary hydroxyproline excretion” value in the assay with ovariectomized rats came to 22%. The IC50 in assay [1] worked out at 13.3 µM.

For `CN(C)CCn1c(S(=O)(=O)N2CCCCC2)c(C(c2ccccc2)c2ccccc2)c2ccccc21` [Compound 24, 1-(2-Dimethylaminoethyl)-3-(diphenylmethyl)-2-(piperidinosulfonyl)indole], the “Inhibition rate of increase of the amount of urinary hydroxyproline excretion” value in the assay with ovariectomized rats was determined as 100%. Moreover, in assay [1], the IC50 is 13.7 µM.
